pIC50: −log10 of the molar value. Counter-ions that a name gives are not always drawn. Like-named read-outs stand apart in the source and are kept apart here. Non-standard residues stand in square brackets, D forms with d. Residues, ends and D or L forms follow the SMILES beside them. *: point of attachment. Phg = N[C@H](C(=O)O)c1ccccc1; Cbz = O=C(OCc1ccccc1)*; OtBu = CC(C)(C)O*
What was measured:
caspase-3 = caspase-3 (Homo sapiens (Human), UniProt P42574); experiment: Caspase-3 Inhibitor Drug Screening Kit, fluorometric enzymatic assay; format: biochemical; conditions: for IC50: 30-minute incubation at 37° C., AFC liberation
caspase-3, sequence (P42574 29-175): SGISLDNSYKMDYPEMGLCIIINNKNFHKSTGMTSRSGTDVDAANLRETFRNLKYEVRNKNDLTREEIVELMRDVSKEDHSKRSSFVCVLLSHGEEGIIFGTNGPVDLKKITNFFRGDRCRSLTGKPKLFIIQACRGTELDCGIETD
caspase-3, sequence (P42574 176-277): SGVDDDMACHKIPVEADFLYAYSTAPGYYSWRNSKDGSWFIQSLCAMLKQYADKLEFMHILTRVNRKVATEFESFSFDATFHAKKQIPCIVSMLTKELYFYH
Method: (§1) The level of inhibition of caspase-1, -3, -5, -7, -9 activity was determined by comparison of the relative fluorescence intensity in samples with or without the compound.

Hela cells = experiment: Inhibition of proteolytic cleavage of PARP in staurosporine-treated live Hela cells; format: cell-based
Method: To test the efficacy of caspase-3 inhibitors at the cellular level, the ability of selected compounds to inhibit the proteolytic cleavage of PARP (poly ADP-ribose polymerase) was evaluated in live Hela cells.
Briefly, in this assay Hela cells are seeded in 96 well plates and incubated for 4 hours with staurosporine, a well characterized inducer of apoptosis, alone or together with different concentrations of compound (50, 25, 10 and 3 uM). After formaldehyde-based fixation, the cells are stained with a fluorescein-labeled anti-cleaved PARP antibody (Cell signaling, Cat#: 9547) and counterstained with Hoechst33342 (Invitrogen, Cat#: H3570) to mark all nuclei. Fluorescence images are taken on a Cellomics™ microscope system (Thermo Scientific, Pittsburgh, USA) with the Hoechst stain in the blue channel and the cleaved PARP antibody stain in the green channel. The percentage of cleaved PARP positive cells is determined by calculating the ratio between nuclei with a cleaved PARP antibody staining above a certain threshold and all (Hoechst positive) nuclei. The efficacy of caspase-3 inhibition is determined by calculating the ratio between cleaved PARP positive cells after staurosporine incubation together with compounds and staurosporine incubation without compounds.

caspase-1 = caspase-1 (Homo sapiens (Human), UniProt P29466); experiment: Caspase-1 Inhibitor Drug Screening Kit, fluorometric enzymatic assay; conditions: read-out: Caspase enzymatic activity, IC50 (uM) Caspase 1; 30-minute incubation at 37° C., AFC liberation
caspase-1, sequence (P29466 120-297): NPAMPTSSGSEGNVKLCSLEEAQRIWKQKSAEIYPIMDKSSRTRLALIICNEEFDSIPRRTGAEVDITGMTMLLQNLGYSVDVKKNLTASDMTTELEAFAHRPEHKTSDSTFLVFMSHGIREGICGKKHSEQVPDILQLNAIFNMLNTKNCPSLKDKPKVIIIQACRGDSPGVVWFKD
caspase-1, sequence (P29466 317-404): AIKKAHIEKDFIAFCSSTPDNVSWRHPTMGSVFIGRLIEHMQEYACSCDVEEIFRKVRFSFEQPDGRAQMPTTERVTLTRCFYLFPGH
Method: as §1

caspase-5 = caspase-5 (Homo sapiens (Human), UniProt P51878); experiment: Caspase-5 Inhibitor Drug Screening Kit, fluorometric enzymatic assay; conditions: read-out: Caspase enzymatic activity, IC50 (uM) Caspase 5; 30-minute incubation at 37° C., AFC liberation
caspase-5, sequence (P51878 137-327): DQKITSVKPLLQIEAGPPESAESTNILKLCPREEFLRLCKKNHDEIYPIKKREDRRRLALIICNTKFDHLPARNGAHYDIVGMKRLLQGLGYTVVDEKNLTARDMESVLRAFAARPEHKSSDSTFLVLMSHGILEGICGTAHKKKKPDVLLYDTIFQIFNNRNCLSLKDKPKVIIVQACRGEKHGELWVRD
caspase-5, sequence (P51878 347-434): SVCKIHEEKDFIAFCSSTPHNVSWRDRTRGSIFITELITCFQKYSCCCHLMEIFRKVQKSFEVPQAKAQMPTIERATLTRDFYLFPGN
Method: as §1

caspase-9 = caspase-9 (Homo sapiens (Human), UniProt P55211); experiment: Caspase-9 Inhibitor Drug Screening Kit, fluorometric enzymatic assay; conditions: for IC50: read-out: Caspase enzymatic activity, IC50 (uM) Caspase 9, 30-minute incubation at 37° C., AFC liberation
caspase-9, sequence (P55211 1-315): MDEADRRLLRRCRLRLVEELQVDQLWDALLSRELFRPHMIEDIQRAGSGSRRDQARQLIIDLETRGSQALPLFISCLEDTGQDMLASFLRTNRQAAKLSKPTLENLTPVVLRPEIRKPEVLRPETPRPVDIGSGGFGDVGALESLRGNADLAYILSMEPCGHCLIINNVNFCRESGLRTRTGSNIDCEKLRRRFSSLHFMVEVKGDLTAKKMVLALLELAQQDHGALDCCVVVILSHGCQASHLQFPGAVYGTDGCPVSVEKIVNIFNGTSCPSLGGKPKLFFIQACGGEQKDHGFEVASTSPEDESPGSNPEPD
caspase-9, sequence (P55211 331-416): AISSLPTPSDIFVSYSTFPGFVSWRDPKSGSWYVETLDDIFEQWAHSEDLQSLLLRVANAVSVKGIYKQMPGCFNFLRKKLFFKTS
Method: as §1

caspase-7 = caspase-7 (Homo sapiens (Human), UniProt P55210); experiment: Caspase-7 Inhibitor Drug Screening Kit, fluorometric enzymatic assay
caspase-7, sequence (P55210 24-198): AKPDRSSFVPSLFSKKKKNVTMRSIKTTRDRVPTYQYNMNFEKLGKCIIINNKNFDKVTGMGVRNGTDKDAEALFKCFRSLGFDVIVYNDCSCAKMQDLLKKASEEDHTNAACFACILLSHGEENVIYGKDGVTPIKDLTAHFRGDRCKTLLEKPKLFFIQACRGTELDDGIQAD
caspase-7, sequence (P55210 207-303): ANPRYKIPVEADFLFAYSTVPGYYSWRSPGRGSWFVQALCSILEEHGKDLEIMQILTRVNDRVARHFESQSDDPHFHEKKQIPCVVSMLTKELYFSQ
Method: as §1

[1] = Homo sapiens, read-out: % inhibition of PARP cleavage at 50 uM compound, staurosporine 4 hours, 50 uM compound
[2] = Homo sapiens, 50 uM, relative to DEVDFMK, read-out: % of inhibition with compound relative to DEVDFMK

| activity against caspase-3 (in words) (caspase-3) | IC50 (caspase-3) [µM] | IC50 (caspase-5) [µM] | Compound | inhibition at 50 µM (Hela cells; [1]) [%] | other results |
| --- | --- | --- | --- | --- | --- |
| devoid of any activity | > 10 | – | CC(C)(C)OC(=O)C[C@H](N)/C=C/S(C)(=O)=O.Cc1ccc(S(=O)(=O)O)cc1 (stereo in doubt) [Compound 33, Asp(β-tert-butyl)methyl vinyl sulfone tosyl salt] | – | – |
| – | – | – | COC(=O)CC[C@H](NC(=O)[C@H](CC(=O)OC)NC(=O)OCc1ccccc1)C(=O)N[C@H](C(=O)N[C@@H](CC(=O)OC)C(=O)CF)C(C)C [DEVD-fmk, reference compound] | 85 | pIC50 (Hela cells; Homo sapiens, staurosporine): 4.70 |
| – | – | > 3.33 | CC(C)[C@H](NC(=O)[C@@H](NC(=O)[C@H](CC(=O)O)NC(=O)OCc1ccccc1)C1Cc2ccccc2C1)C(=O)N[C@H](/C=C/S(=O)(=O)C(C)C)CC(=O)O [Compound 68, Z-Asp-Indanylglycine-Val-Aspisopropyl vinyl sulfone] | 30 | inhibition at 50 µM (Hela cells; [2]): 50%; IC50 (caspase-1): > 3.33 µM; IC50 (caspase-9): > 3.33 µM |
| The same result was observed | > 3.33 | – | Cc1ccc(S(=O)(=O)N[C@@H](Cc2ccc3ccccc3n2)C(=O)N[C@H](C(=O)N[C@H](/C=C(\Cl)S(C)(=O)=O)CC(=O)O)C(C)C)cc1 [Compound 50, Ts-Ala(2′quinolyl)-Val-Asp- αchlorovinyl methylsulfone] | – | IC50 (caspase-1): > 3.33 µM |
| devoid of any activity | > 10 | – | CS(=O)(=O)/C=C/[C@@H](N)CC(=O)O.Cc1ccc(S(=O)(=O)O)cc1 [Compound 93, Aspmethyl vinyl sulfone tosyl salt] | – | – |
| – | > 2 | – | CC(C)(C)OC(=O)C[C@H](N)/C=C/S(=O)(=O)c1ccccc1 [Compound 37, Asp Vinyl phenyl sulfone tosyl salt] | – | – |
| devoid of any activity | > 2 | – | CC(C)[C@H](NC(=O)[C@@H](NC(=O)[C@H](CC(=O)OC(C)(C)C)NC(=O)OCc1ccccc1)c1ccccc1)C(=O)O [Compound 16, Z-Asp(β-tert-Butyl)-Phg-Val-OH.] (Cbz-Asp(OtBu)-[Phg]-Val-OH) | – | – |
| – | – | – | CC(C)[C@H](NC(=O)[C@H](Cc1ccc2ccccc2n1)NC(=O)[C@H](CC(=O)OC(C)(C)C)NC(=O)OCc1ccccc1)C(=O)N[C@H](/C=C/S(=O)(=O)N1CCOCC1)CC(=O)OC(C)(C)C [Compound 66, Z-Asp(β-tert-Butyl)-Ala(2′-quinolyl)-Val-Asp(β-tert-Butyl)morpholine vinyl sulfone] | 25 | – |
| – | – | > 3.33 | CC(C)[C@H](NC(=O)[C@H](Cc1ccccn1)NC(=O)[C@H](CC(=O)O)NC(=O)OCc1ccccc1)C(=O)N[C@H](/C=C/S(=O)(=O)c1ccccc1)CC(=O)O [Compound 85, Z-Asp-Ala(2′-pyridyl)-Val-Aspphenyl vinylsulfone] | 40 | IC50 (caspase-1): > 3.33 µM; IC50 (caspase-9): > 3.33 µM |
| – | > 2 | – | CC(C)(C)OC(=O)C[C@@H](/C=C/S(=O)(=O)c1ccccc1)NC(=O)OC(C)(C)C [Compound 36, Boc-Asp-vinyl phenyl sulfone] | – | – |
| – | – | > 3.33 | CC(C)[C@H](NC(=O)[C@H](Cc1c[nH]c2ccccc12)NC(=O)[C@H](CC(=O)O)NC(=O)OCc1ccccc1)C(=O)N[C@H](/C=C/S(C)(=O)=O)CC(=O)O [Compound 88, Z-Asp-Trp-Val-Aspmethyl vinyl sulfone] | 45 | inhibition at 50 µM (Hela cells; [2]): 50%; IC50 (caspase-9): > 3.33 µM |
| – | – | > 3.33 | CC(C)[C@H](NC(=O)[C@H](CCC(=O)O)NC(=O)[C@H](CC(=O)O)NC(=O)OCc1ccccc1)C(=O)N[C@H](/C=C/S(C)(=O)=O)CC(=O)O [Compound 59, Z-Asp-Glu-Val-Aspmethyl vinyl sulfone] | 45 | inhibition at 50 µM (Hela cells; [2]): 70%; effectivity in inhibiting PARP cleavage (in words) (Hela cells; relative to DEVD-fmk): showing effectivity; pIC50 (caspase-7): 7.38; pIC50 (caspase-9): 6.29 |
| – | – | > 3 | CC(C)[C@H](NC(=O)[C@H](CCC(=O)O)NC(=O)[C@H](Cc1ccc(O)cc1)NC(=O)OCc1ccccc1)C(=O)N[C@H](/C=C/S(C)(=O)=O)CC(=O)O [Compound 82, Z-Tyr-Glu-Val-Aspmethyl vinyl sulfone] | – | IC50 (caspase-7; read-out: Caspase enzymatic activity, IC50 (uM) Caspase 7, 30-minute incubation at 37° C., AFC liberation): > 5 µM |
